Experimental findings from patent US8193221B2, “Insecticidal compounds” (Syngenta Crop Protection LLC, priority 2007, dated 2012) are described below.

Format in all cases: in vivo
The test system of assay [1] is Spodoptera littoralis. Kind of assay: Spodoptera littoralis (Egyptian cotton leafworm) cotton leaf disc spray test. The settings on record: for pest or weed control at 200 ppm: foliar, 72 h, read-out: control of Spodoptera littoralis; for damage to the test organisms: same protocol, 200 ppm. From the text:
Spodoptera littoralis (Egyptian Cotton Leafworm):
Cotton leaf discs were placed on agar in a 24-well microtiter plate and sprayed with test solutions at an application rate of 200 ppm. After drying, the leaf discs were infested with 5 L1 larvae. The samples were checked for mortality, feeding behavior, and growth regulation 3 days after treatment (DAT).

In assay [2] the test system is Thrips tabaci. Kind of assay: Thrips tabaci (onion thrips) sunflower leaf disc spray test. The settings on record: same protocol, 200 ppm. On the procedure:
Thrips tabaci (Onion Trips):
Sunflower leaf discs were placed on agar in a 24-well microtiter plate and sprayed with test solutions at an application rate of 200 ppm. After drying, the leaf discs were infested with an […] population of mixed ages. After an incubation period of 7 days, samples were checked for mortality.

Assay [3] has as its system Plutella xylostella. Kind of assay: Plutella xylostella (diamond back moth) larval test on artificial diet. The settings on record: same protocol, 200 ppm. On the procedure: Plutella xylostella (Diamond Back Moth):
24-well microtiter plate (MTP) with artificial diet was treated with test solutions at an application rate of 200 ppm (concentration in well 18 ppm) by pipetting. After drying, the MTP's were infested with L2 larvae (7-12 per well). After an incubation period of 6 days, samples were checked for larval mortality and growth regulation.

The subject of assay [4] is Diabrotica balteata. Kind of assay: Diabrotica balteata (corn root worm) larval test on artificial diet. The settings on record: same protocol, 200 ppm. On the procedure:
Diabrotica balteata (Corn Root Worm):
A 24-well microtiter plate (MTP) with artificial diet was treated with test solutions at an application rate of 200 ppm (concentration in well 18 ppm) by pipetting. After drying, the MTP's were infested with L2 larvae (6-10 per well). After an incubation period of 5 days, samples were checked for larval mortality and growth regulation.

For assay [5], the system named is Heliothis virescens. Kind of assay: Heliothis virescens (tobacco budworm) egg test on artificial diet. To be noted: same protocol, 200 ppm. On the procedure:
Heliothis virescens (Tobacco Budworm):
Eggs (0-24 h old) were placed in 24-well microtiter plate on artificial diet and treated with test solutions at an application rate of 200 ppm (concentration in well 18 ppm) by pipetting. After an incubation period of 4 days, samples were checked for egg mortality, larval mortality, and growth regulation.

Assay [6] has as its system Tetranychus urticae. Kind of assay: Tetranychus urticae (two-spotted spider mite) bean leaf disc spray test. To be noted: same protocol, 200 ppm. From the text: Tetranychus urticae (Two-Spotted Spider Mite):
Bean leaf discs on agar in 24-well microtiter plates were sprayed with test solutions at an application rate of 200 ppm. After drying, the leaf discs are infested with mite populations of mixed ages. 8 days later, discs are checked for egg mortality, larval mortality, and adult mortality.

The mark [7] stands for this setting: 200 ppm sprayed on cotton leaf discs, L1 larvae, mortality, feeding behavior, growth regulation 3 DAT.

The structures appear in SMILES notation. Where two headings read alike, the source gives them in different places. Where only a bound is given, the exact number is not on record here.

On to `[H]/N=C(\NOC)c1ccc(C2=NOC(c3cc(Cl)cc(Cl)c3)(C(F)(F)F)C2)cc1C` (centres unmarked) [Compound A3], for which the pest or weed control at 200 ppm in assay [1] (setting [7]) is at least 80%.

On to `[H]/N=C(\NOCC#CC)c1ccc(C2=NOC(c3cc(Cl)cc(Cl)c3)(C(F)(F)F)C2)cc1C` (centres unmarked) [Compound A25], for which the pest or weed control at 200 ppm in assay [1] (setting [7]) was at least 80%.

Consider `CCOC(=O)/C=C/CONC(=N)c1ccc(C2=NOC(c3cc(Cl)cc(Cl)c3)(C(F)(F)F)C2)cc1C` (centres unmarked) [Compound A13], for which the “damage to the test organisms” value in assay [2], in assay [3], in assay [1], in assay [4], in assay [5] and in assay [6] was “little or no damage” each time.

For `C#CCONC(=N)c1ccc(C2=NOC(c3cc(Cl)cc(Cl)c3)(C(F)(F)F)C2)cc1C` (centres unmarked) [Compound A2, 4-[5-(3,5-dichloro-phenyl)-5-trifluoromethyl-4,5-dihydro-isoxazol-3-yl]-2-methyl-N-prop-2-ynyloxy-benzamidine], the pest or weed control at 200 ppm in assay [1] was at least 80%.

Consider `[H]/N=C(\NOCCCC)c1ccc(C2=NOC(c3cc(Cl)cc(Cl)c3)(C(F)(F)F)C2)cc1C` (centres unmarked) [Compound A6], for which the pest or weed control at 200 ppm in assay [1] (setting [7]) is at least 80%.

Consider `[H]/N=C(\NOCCC)c1ccc(C2=NOC(c3cc(Cl)cc(Cl)c3)(C(F)(F)F)C2)cc1C` (centres unmarked) [Compound A27], for which the pest or weed control at 200 ppm in assay [1] (setting [7]) was at least 80%.

Regarding `Cc1cc(C2=NOC(c3cc(Cl)cc(Cl)c3)(C(F)(F)F)C2)ccc1/C(N)=N/O` (centres unmarked) [Compound A1, 4-[5-(3,5-dichloro-phenyl)-5-trifluoromethyl-4,5-dihydro-isoxazol-3-yl]-N-hydroxy-2-methyl-benzamidine], the pest or weed control at 200 ppm in assay [1] (setting [7]) is at least 80%.

Turning to `Cc1cc(C2=NOC(c3cc(Cl)cc(Cl)c3)(C(F)(F)F)C2)ccc1C(=N)NOCC1CCCCC1` (centres unmarked) [Compound A26], the “damage to the test organisms” value in assay [2], in assay [3], in assay [1], in assay [4], in assay [5] and in assay [6] was “little or no damage” in each case.

`[H]/N=C(\NOCC)c1ccc(C2=NOC(c3cc(Cl)cc(Cl)c3)(C(F)(F)F)C2)cc1C` (centres unmarked) [Compound A4]: the pest or weed control at 200 ppm in assay [1] (setting [7]) was at least 80%.

Regarding `Cc1cc(C2=NOC(c3cc(Cl)cc(Cl)c3)(C(F)(F)F)C2)ccc1C(=N)NOCC1CCCCO1` (centres unmarked) [Compound A14], the “damage to the test organisms” value in assay [2], in assay [3], in assay [1], in assay [4], in assay [5] and in assay [6] was “little or no damage” each time.

For `[H]/N=C(\NOCC=C)c1ccc(C2=NOC(c3cc(Cl)cc(Cl)c3)(C(F)(F)F)C2)cc1C` (centres unmarked) [Compound A5], in assay [1] (setting [7]), the pest or weed control at 200 ppm was at least 80%.

Turning to `Cc1cc(C2=NOC(c3cc(Cl)cc(Cl)c3)(C(F)(F)F)C2)ccc1C(=N)NOC(C)C(=O)Nc1ccccc1` (centres unmarked) [Compound A24], the “damage to the test organisms” value in assay [2], in assay [3], in assay [1], in assay [4], in assay [5] and in assay [6] was “little or no damage” each time.

Consider `CCOC(=O)c1ccc(CONC(=N)c2ccc(C3=NOC(c4cc(Cl)cc(Cl)c4)(C(F)(F)F)C3)cc2C)o1` (centres unmarked) [Compound A33], for which the “damage to the test organisms” value in assay [2], in assay [3], in assay [1], in assay [4], in assay [5] and in assay [6] was “little or no damage” throughout.

As for `Cc1cc(C2=NOC(c3cc(Cl)cc(Cl)c3)(C(F)(F)F)C2)ccc1C(=N)NOCc1sc(Cl)nc1C(F)(F)F` (centres unmarked) [Compound A32], the “damage to the test organisms” value in assay [2], in assay [3], in assay [1], in assay [4], in assay [5] and in assay [6] was “little or no damage” in each case.

On to `COc1ccc(C(=O)CONC(=N)c2ccc(C3=NOC(c4cc(Cl)cc(Cl)c4)(C(F)(F)F)C3)cc2C)cc1` (centres unmarked) [Compound A28], for which the “damage to the test organisms” value in assay [2], in assay [3], in assay [1], in assay [4], in assay [5] and in assay [6] was “little or no damage” each time.

Regarding `Cc1cc(C2=NOC(c3cc(Cl)cc(Cl)c3)(C(F)(F)F)C2)ccc1C(=N)NOCc1cc(Cl)cc2c1OCOC2` (centres unmarked) [Compound A19], the “damage to the test organisms” value in assay [2], in assay [3], in assay [1], in assay [4], in assay [5] and in assay [6] was “little or no damage” in each case.
